Where two headings read alike, the source gives them in different places.
Experiments:
[1] = molecular target: T1, Bombyx mori EcR (VP16 fusion, CVBE switch construct) (Bombyx mori, UniProt P49881); test: Z3 Assay (HEK-293 cells with CVBE and 6XEcRE LacZ, β-galactosidase reporter); settings: for Fold Induction, Z3 Assay, 33 uM: 33 uM ligand; for Fold Induction, Z3 Assay, 33 uM / Fold Induction, Z3 Assay, 3.3 uM: ligand treated / DMSO treated cells; for Fold Induction, Z3 Assay, 3.3 uM: 3.3 uM ligand; for Z3 assay Rel Max FI: maximum fold induction at any concentration relative to that of GS-E ligand; for fold induction at 3.3 µM: HEK293, read-out: Fold Induction, Z3 Assay, 3.3 uM; for fold induction at 33 µM: HEK293, read-out: Fold Induction, Z3 Assay, 33 uM
T1 sequence (P49881 86-606): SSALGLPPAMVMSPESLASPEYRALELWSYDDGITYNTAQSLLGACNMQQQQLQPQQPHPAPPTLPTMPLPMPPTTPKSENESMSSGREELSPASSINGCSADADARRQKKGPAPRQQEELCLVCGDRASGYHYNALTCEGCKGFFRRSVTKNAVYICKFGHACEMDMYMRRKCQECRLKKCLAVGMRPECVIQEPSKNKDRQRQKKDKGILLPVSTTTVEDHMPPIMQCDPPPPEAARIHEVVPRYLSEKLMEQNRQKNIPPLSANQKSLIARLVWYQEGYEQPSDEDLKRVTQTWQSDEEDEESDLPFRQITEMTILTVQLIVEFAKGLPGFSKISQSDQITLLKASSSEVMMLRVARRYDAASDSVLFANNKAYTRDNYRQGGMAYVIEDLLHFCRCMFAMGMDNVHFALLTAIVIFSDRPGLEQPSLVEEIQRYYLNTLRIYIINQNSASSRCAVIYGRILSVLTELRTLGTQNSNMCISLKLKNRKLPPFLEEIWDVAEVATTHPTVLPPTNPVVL
T1 sequence (P19793 1-462 partner): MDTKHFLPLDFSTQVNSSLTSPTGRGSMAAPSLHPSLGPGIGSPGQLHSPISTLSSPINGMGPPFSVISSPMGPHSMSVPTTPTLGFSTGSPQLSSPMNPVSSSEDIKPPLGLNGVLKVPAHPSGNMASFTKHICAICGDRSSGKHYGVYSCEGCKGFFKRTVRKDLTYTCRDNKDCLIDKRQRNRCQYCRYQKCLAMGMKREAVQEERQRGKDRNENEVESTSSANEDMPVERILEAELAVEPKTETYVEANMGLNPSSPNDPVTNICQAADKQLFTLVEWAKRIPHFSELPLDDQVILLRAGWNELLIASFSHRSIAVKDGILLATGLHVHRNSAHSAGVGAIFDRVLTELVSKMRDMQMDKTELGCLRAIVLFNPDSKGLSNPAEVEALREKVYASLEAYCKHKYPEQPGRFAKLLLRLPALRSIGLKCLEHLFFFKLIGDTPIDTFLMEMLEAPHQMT

[2] = molecular target: GAL4 DBD-CfEcR(DEF)/VP16AD-MmRXRE (Choristoneura fumiferana, UniProt O77240); test: 13B3 Assay (CHO stable cell line, luciferase reporter); settings: for Fold Induction, 13B3 Assay, 33 uM: 33 uM ligand; for Fold Induction, 13B3 Assay, 33 uM / Fold Induction, 13B3 Assay, 3.3 uM: RLU ligand treated / RLU DMSO treated cells; for Fold Induction, 13B3 Assay, 3.3 uM: 3.3 uM ligand; for 13B3 assay Rel Max FI: maximum fold induction at any concentration relative to that of GS-E ligand, CHO 13B3 cells; for fold induction at 3.3 µM: read-out: Fold Induction, 13B3 Assay, 3.3 uM; for fold induction at 33 µM: read-out: Fold Induction, 13B3 Assay, 33 uM
Outline: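 CHO 13B3 clone stably expressing GAL4 DBD–CfEcR(DEF) and VP16AD–MmRXR(DE) with GAL4 RE–luciferase reporter; cells plated 24 h at 37 °C, then treated with ligands (DMSO stocks diluted 300-fold), 8 concentrations 33–0.01 μM.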

[3] = read-out: Z3 assay EC50, HEK-293 Z3 cells, β-galactosidase reporter, average of two wells
[4] = read-out: 13B3 EC50, CHO 13B3 stable cell line, luciferase reporter, 48 h, average of two wells

| Structure (SMILES) | Fold Induction, Z3 Assay, 33 uM ([1]; average of two wells) | Fold Induction, 13B3 Assay, 33 uM ([2]; average of two wells) | EC50 [1, 3] | Fold Induction, Z3 Assay, 3.3 uM ([1]; average of two wells) | Z3 assay Rel Max FI ([1]; HEK-293 Z3 cells) | also measured |
| --- | --- | --- | --- | --- | --- | --- |
| CC(=O)c1ccc(C(=O)NN(C(=O)c2cc(C(=O)O)cc(C(=O)O)c2)C(C)(C)C)cc1 [RG-100150] | 1 | 1 |  |  |  |  |
| CC(O)c1ccc(C(=O)NN(C(=O)c2cc(F)cc(F)c2)C(C)(C)C)cc1 (stereo not drawn) [RG-100342] | 427 | 611 | 10200 nM |  |  |  |
| COc1cccc(C(=O)N(NC(=O)c2ccc3c(c2C)OCCO3)C(C)(C)C)c1 [RG-100360] | 891 | 745 | 257 nM | 870 | 1.073 | Fold Induction, 13B3 Assay, 3.3 uM ([2]; average of two wells): 1111; 13B3 assay Rel Max FI [2]: 0.825; EC50 [2, 4]: 588 nM |
| Cc1c(C(=O)NN(C(=O)c2ccc(F)cc2)C(C)(C)C)ccc2c1OCCO2 [RG-100425] | 592 | 747 | 99 nM | 1128 | 1.180 |  |
| Cc1c(C(=O)NN(C(=O)c2ccc(F)cc2)C(C)(C)C)ccc2c1OCO2 [RG-100448] | 423 | 2 | 2820 nM |  |  |  |
| COc1ccccc1C(=O)N(NC(=O)c1ccc2c(c1)OCCO2)C(C)(C)C [RG-100492] | 143 | 1002 | 8130 nM |  |  |  |
| COc1cccc(C(=O)NN(C(=O)c2cc(C)cc(C)c2)C(C)(C)C)c1[N+](=O)[O-] [RG-100568] | 1193 | 4122 | 3310 nM | 276 | 0.855 | Fold Induction, 13B3 Assay, 3.3 uM ([2]; average of two wells): 2; 13B3 assay Rel Max FI [2]: 1.035; EC50 [2, 4]: 44300 nM |
| COc1cccc(C(=O)NN(C(=O)c2cc(C)ccc2[N+](=O)[O-])C(C)(C)C)c1C [RG-100569] | 457 | 329 | 98 nM | 754 | 0.835 | Fold Induction, 13B3 Assay, 3.3 uM ([2]; average of two wells): 1710; 13B3 assay Rel Max FI [2]: 0.773; EC50 [2, 4]: 185 nM |
| CCc1c(C(=O)NN(C(=O)c2ccccc2OC)C(C)(C)C)ccc2c1OCCO2 [RG-100690] | 475 | 500 | 240 nM | 779 | 1.008 | Fold Induction, 13B3 Assay, 3.3 uM ([2]; average of two wells): 1094; 13B3 assay Rel Max FI [2]: 0.506; EC50 [2, 4]: 268 nM |
| CCc1c(C(=O)NN(C(=O)c2cccc(OC)c2)C(C)(C)C)ccc2c1OCCO2 [RG-100691] | 565 | 643 | 257 nM | 843 | 0.945 |  |
| COc1cccc(C(=O)NN(C(=O)c2cccc(C)c2)C(C)(C)C)c1C [RG-100694] | 1288 | 2078 | 389 nM | 1294 | 1.157 | Fold Induction, 13B3 Assay, 3.3 uM ([2]; average of two wells): 3385; 13B3 assay Rel Max FI [2]: 0.632; EC50 [2, 4]: 405 nM |
| CCc1c(OC)cccc1C(=O)NN(C(=O)c1ccc2c(c1)OCO2)C(C)(C)C [RG-100699] | 415 | 2296 | 2090 nM |  |  |  |
| CCc1c(OC)cccc1C(=O)NN(C(=O)c1ccccc1OC)C(C)(C)C [RG-100725] | 511 | 581 |  |  |  |  |
| COc1ccc(OC)c(C(=O)N(NC(=O)c2cccc(C)c2C)C(C)(C)C)c1 [RG-100763] | 151 | 2442 | 2140 nM |  |  |  |
| COc1ccc(C)cc1C(=O)N(NC(=O)c1cccc(OC)c1C)C(C)(C)C [RG-100766] | 474 | 391 | 174 nM | 921 | 1.194 |  |
| COc1cc(C)cc(C(=O)N(NC(=O)c2cccc(OC)c2C)C(C)(C)C)c1 [RG-100767] | 371 | 682 | 251 nM | 825 | 0.996 | Fold Induction, 13B3 Assay, 3.3 uM ([2]; average of two wells): 4504; 13B3 assay Rel Max FI [2]: 0.920; EC50 [2, 4]: 1060 nM |
| CC(C)(C)N(NC(=O)c1ccc(Cl)cc1)C(=O)c1ccccc1 [RG-100864] |  |  |  |  |  | EC50 [1]: 2240 nM; fold induction at 3.3 µM [1]: 63; fold induction at 33 µM [1]: 840; EC50 [2]: 1160 nM; fold induction at 3.3 µM [2]: 318; fold induction at 33 µM [2]: 187 |
| COc1cccc(C(=O)NN(C(=O)c2cc(Cl)c(F)c(Cl)c2)C(C)(C)C)c1C [RG-101382, N-(3-methoxy-2-methylbenzoyl)-N′-(3,5-dichloro-4-fluorobenzoyl)-N′-tert-butylhydrazine] |  |  |  |  | 0.951 | EC50 [1]: 66 nM; fold induction at 3.3 µM [1]: 725; fold induction at 33 µM [1]: 426; EC50 [2]: 588 nM; 13B3 assay Rel Max FI [2]: 0.915; fold induction at 3.3 µM [2]: 13100; fold induction at 33 µM [2]: 1010 |
| CCc1c(C(=O)NN(C(=O)c2ccc(F)c(C(F)(F)F)c2)C(C)(C)C)ccc2c1OCCO2 [RG-115280] | 376 |  |  |  |  |  |
| CCC(N(NC(=O)c1cccc(OC)c1C)C(=O)c1cc(C)cc(C)c1)C(C)(C)C (stereo not drawn) [RG-115819, 3,5-dimethyl-benzoic acid N-(1-ethyl-2,2-dimethyl-propyl)-N′-(3-methoxy-2-methyl-benzoyl)-hydrazide] |  |  |  |  | 0.915 | EC50 [1]: 42 nM; fold induction at 3.3 µM [1]: 1430; fold induction at 33 µM [1]: 722 |
| CCC(N(NC(=O)c1cccc(OC)c1C)C(=O)c1cc(OC)c(C)c(OC)c1)C(C)(C)C (stereo not drawn) [RG-115820, 3,5-dimethoxy-4-methyl-benzoic acid N-(1-ethyl-2,2-dimethyl-propyl)-N′-(3-methoxy-2-methyl-benzoyl)-hydrazide] |  |  |  |  | 0.887 | EC50 [1]: 203 nM; fold induction at 3.3 µM [1]: 1410; fold induction at 33 µM [1]: 701 |
| CCCC(N(NC(=O)c1cccc(OC)c1C)C(=O)c1cc(C)cc(C)c1)C(C)(C)C (stereo not drawn) [RG-115823] | 1050 |  | 20 nM | 1440 | 0.933 |  |
| CCCC(N(NC(=O)c1cccc(OC)c1C)C(=O)c1cc(OC)c(C)c(OC)c1)C(C)(C)C (stereo not drawn) [RG-115824] | 737 |  | 46 nM | 895 | 0.806 |  |
| CCCC(N(NC(=O)c1cccc(OC)c1CC)C(=O)c1cc(OC)c(C)c(OC)c1)C(C)(C)C (stereo not drawn) [RG-115829, 3,5-Dimethoxy-4-methyl-benzoic acid N-(1-tert-butyl-butyl)-N′-(2-ethyl-3-methoxy-benzoyl)-hydrazide] |  |  |  |  | 0.937 | EC50 [1]: 58 nM; fold induction at 3.3 µM [1]: 1440; fold induction at 33 µM [1]: 319 |
| CCCC(N(NC(=O)c1cccc(OC)c1CC)C(=O)c1cc(C)cc(C)c1)C(C)(C)C (stereo not drawn) [RG-115830] | 983 |  | 45 nM | 1604 | 1.020 |  |
| CCc1c(OC)cccc1C(=O)NN(C(=O)c1cc(OC)c(C)c(OC)c1)C(CC)C(C)(C)C (stereo not drawn) [RG-115831] | 544 |  | 102 nM | 1481 | 0.937 |  |
| CCc1c(OC)cccc1C(=O)NN(C(=O)c1cc(C)cc(C)c1)C(CC)C(C)(C)C (stereo not drawn) [RG-115832] | 621 |  | 37 nM | 1564 | 1.002 |  |
